From PMC6747015, “Structure–function study of a novel inhibitor of the casein kinase 1 family in Arabidopsis thaliana” (Plant Direct, 2019)

Legend:
[1] = target: T1, CKL4 (AT4G28860) (Arabidopsis thaliana, UniProt Q8LPI7); assay: AMI‐329 bead binding with AMI‐331 competitor, CKL4
T1 construct: from tissue; host or cells: Arabidopsis seedlings, two weeks old
Experimental: (§1) Screening for proteins bound to AMI‐329 beads was done by a method similar to what has previously been described (Uehara et al., 2019). Briefly, two‐week‐old seedlings grown under LD conditions were harvested at time points ZT2, ZT6, ZT9, and ZT17, and stored at −80°C. Proteins from the frozen plant samples were incubated with 0, 5, or 50 µM of AMI‐331 at 4°C for 30 min with rotary mixing. Two technical replicates were used for each experiment. PBS‐washed AMI‐329 beads were added to the protein samples and gently rotated at 4°C for 1 hr. AMI‐329 bead resins were washed with bead buffer (Uehara et al., 2019) six times. The washed resins were suspended in SDS sample buffer and boiled for 8 min. Protein samples were in‐gel‐digested as previously described (Uehara et al., 2019). Peptides were analyzed with a Q Exactive hybrid quadrupole‐orbitrap mass spectrometer (Thermo Fisher Scientific), as described previously (Uehara et al., 2019). […]
(§2) However, another possible mechanism for the strong AMI‐331 biological activity in vivo is that it targets proteins other than the CK1 family for period lengthening. […] It is noteworthy that kinase AT4G08800 is very similar to the CKL family, but the ATP‐binding pocket of mammalian CK1 as determined by its crystal structure (Shinohara et al., 2017) was absent from AT4G08800, as shown in an Araport 11 model (https://www.araport.org). […]

[2] = target: T2, Recombinant CKL4 kinase (Arabidopsis thaliana, UniProt Q8LPI7); assay: In vitro phosphorylation assay of CKL4 (32P phosphorylation of casein); format: biochemical; settings: recombinant CKL4, casein, 32P‐ATP, 37°C for 2 hr; read-out: IC50 for in vitro CKL4 kinase activity
T2 sequence (Q8LPI7 1-414): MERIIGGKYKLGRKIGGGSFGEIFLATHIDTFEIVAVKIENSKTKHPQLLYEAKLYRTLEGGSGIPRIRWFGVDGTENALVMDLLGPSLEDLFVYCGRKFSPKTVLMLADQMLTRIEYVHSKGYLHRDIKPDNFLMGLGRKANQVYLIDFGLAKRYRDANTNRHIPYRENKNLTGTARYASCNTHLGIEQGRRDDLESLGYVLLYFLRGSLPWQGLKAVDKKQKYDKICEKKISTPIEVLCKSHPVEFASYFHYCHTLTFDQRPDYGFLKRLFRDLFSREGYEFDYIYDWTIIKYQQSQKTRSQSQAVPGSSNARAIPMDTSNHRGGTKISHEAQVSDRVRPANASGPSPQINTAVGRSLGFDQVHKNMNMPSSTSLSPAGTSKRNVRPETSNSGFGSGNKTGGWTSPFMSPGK
Experimental: In vitro phosphorylation assays using recombinant CKL4 were performed as described previously (Uehara et al., 2019), with synthetic small molecules. IC261 and PF‐670462 were purchased (Sigma‐Aldrich catalog numbers I0658 and SML0795, respectively). PHA767491 was synthesized as previously described (Uehara et al., 2019). All chemical compounds were dissolved in dimethyl sulfoxide (DMSO) as 10 mM stock solutions. Stock solutions were diluted with DMSO to the working concentration and added to assays in kinase reaction buffer (Uehara et al., 2019).
The activities of three known CK1 inhibitors were measured in vitro by a previously reported method (Uehara et al., 2019). Recombinant CKL4 kinase, casein, ^32P‐ATP, and different concentrations of the inhibitors were combined in a reaction buffer and kept at 37°C for 2 hr. Resulting samples were separated on a polyacrylamide gel by electrophoresis, and ^32P phosphorylation of casein was measured as an indicator of CKL4 kinase activity. IC50 (half‐maximal inhibitory concentration) was determined by calculating the results from at least two independent experiments. […] The stronger in vitro CK1 inhibitory activity shown by PF‐670462 relative to PHA767491 was consistent with previous reports (Uehara et al., 2019).

[3] = target: T3, CKL3 (AT4G28880) (Arabidopsis thaliana, UniProt Q93Z18); assay: AMI‐329 bead binding with AMI‐331 competitor, CKL3
T3 construct: from tissue; host or cells: Arabidopsis seedlings, two weeks old
T3 sequence (Q93Z18 whole entry): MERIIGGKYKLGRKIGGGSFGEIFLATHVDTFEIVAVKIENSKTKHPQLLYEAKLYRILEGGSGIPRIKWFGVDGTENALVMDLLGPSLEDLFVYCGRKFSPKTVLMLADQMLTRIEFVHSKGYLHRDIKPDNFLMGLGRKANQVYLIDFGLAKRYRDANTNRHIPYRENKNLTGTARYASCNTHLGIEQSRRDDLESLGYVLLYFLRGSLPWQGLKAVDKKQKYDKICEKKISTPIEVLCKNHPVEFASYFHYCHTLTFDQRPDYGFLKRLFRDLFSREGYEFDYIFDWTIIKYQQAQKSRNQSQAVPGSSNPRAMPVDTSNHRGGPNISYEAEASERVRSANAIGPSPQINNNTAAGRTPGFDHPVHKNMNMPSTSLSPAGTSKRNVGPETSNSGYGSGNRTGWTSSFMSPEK
Experimental: as §1, §2

[4] = target: T4, RNA‐binding AT3G15010 (Arabidopsis thaliana, UniProt Q9LKA4); assay: AMI‐329 bead binding with AMI‐331 competitor, RNA‐binding protein AT3G15010
T4 construct: Proteins from the frozen plant samples were incubated with 0, 5, or 50 µM of AMI‐331; from tissue; host or cells: two-week-old Arabidopsis seedlings (protein lysate)
T4 sequence (Q9LKA4 whole entry): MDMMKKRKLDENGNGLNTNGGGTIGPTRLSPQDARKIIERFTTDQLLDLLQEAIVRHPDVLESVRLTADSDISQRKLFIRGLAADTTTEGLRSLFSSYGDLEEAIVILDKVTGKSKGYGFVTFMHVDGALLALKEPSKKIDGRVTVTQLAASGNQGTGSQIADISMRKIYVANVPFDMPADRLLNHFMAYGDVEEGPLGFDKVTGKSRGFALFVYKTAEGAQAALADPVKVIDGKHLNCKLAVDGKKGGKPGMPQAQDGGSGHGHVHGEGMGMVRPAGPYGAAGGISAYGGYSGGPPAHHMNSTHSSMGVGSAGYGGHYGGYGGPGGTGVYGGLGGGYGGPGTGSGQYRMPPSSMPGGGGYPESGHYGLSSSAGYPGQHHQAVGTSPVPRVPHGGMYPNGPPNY
Experimental: as §1, §2

[5] = target: T5, CKL11 (AT4G14340) (Arabidopsis thaliana, UniProt Q39050); assay: AMI‐329 bead binding with AMI‐331 competitor, CKL11
T5 construct: from tissue; host or cells: Arabidopsis seedlings, two weeks old
T5 sequence (Q39050 whole entry): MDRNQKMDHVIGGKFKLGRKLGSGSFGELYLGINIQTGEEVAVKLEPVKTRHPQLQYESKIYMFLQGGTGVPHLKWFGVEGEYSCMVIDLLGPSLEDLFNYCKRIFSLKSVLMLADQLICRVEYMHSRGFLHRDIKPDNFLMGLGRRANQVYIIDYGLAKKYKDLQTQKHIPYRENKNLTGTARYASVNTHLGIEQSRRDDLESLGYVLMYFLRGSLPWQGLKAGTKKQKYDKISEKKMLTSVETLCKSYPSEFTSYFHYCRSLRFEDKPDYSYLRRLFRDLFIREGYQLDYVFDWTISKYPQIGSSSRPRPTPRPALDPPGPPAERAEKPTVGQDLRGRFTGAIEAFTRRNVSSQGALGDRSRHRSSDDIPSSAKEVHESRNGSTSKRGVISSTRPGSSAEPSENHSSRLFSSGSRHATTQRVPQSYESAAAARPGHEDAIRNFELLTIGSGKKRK
Experimental: as §1, §2

SMILES: C#CCn1c2c(c(Br)c1-c1ccncc1)C(=O)NCC2.Cl [AMI‐331]
- Spectra (PSMs) AMI‐329 beads bound ([1]; competitor AMI‐331 5 µM): 1 PSMs
- Spectra (PSMs) AMI‐329 beads bound ([1]; competitor AMI‐331 50 µM): 0 PSMs
- IC50 [2]: 700 nM
- Spectra (PSMs) AMI‐329 beads bound ([3]; competitor AMI‐331 5 µM): 1 PSMs
- Spectra (PSMs) AMI‐329 beads bound ([3]; competitor AMI‐331 50 µM): 0 PSMs
- Spectra (PSMs) AMI‐329 beads bound ([4]; competitor AMI‐331 5 µM): 0 PSMs
- Spectra (PSMs) AMI‐329 beads bound ([4]; competitor AMI‐331 50 µM): 0 PSMs
- Spectra (PSMs) AMI‐329 beads bound ([5]; competitor AMI‐331 5 µM): 1 PSMs
- Spectra (PSMs) AMI‐329 beads bound ([5]; competitor AMI‐331 50 µM): 0 PSMs
